Patent US9409884B2 (Rigel Pharmaceuticals, Inc., priority 2012, dated 2016)

Target: AMPK
Assay: AMPK activation, enzyme-linked immunosorbent assay
Assay type: biochemical
Details: Table 12, compounds of Table 5
How it was run: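 AMPK activation by test compounds was measured by enzyme-linked immunosorbent assay.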

Row | SMILES | EC50
1 | O=C(NC1CCN(Cc2ccccc2)CC1)c1ccc(OC2CCN(c3cccs3)CC2)c(Cl)c1 [Compound 5-10, N-(1-benzylpiperidin-4-yl)-3-chloro-4-(1-(thiophen-2-yl)piperidin-4-yloxy)benzamide] | 1000 to 10000 nM
2 | O=C(NC1CCN(Cc2ccccc2)CC1)c1ccc(OC2CCN(c3ccco3)CC2)c(Cl)c1 [Compound 5-11, N-(1-benzylpiperidin-4-yl)-3-chloro-4-(1-(furan-2-yl)piperidin-4-yloxy)benzamide] | 1000 to 10000 nM
3 | COc1cc(C(=O)NC2CCN(Cc3ccccc3)CC2)ccc1OC1CCN(c2ccco2)CC1 [Compound 5-12, N-(1-benzylpiperidin-4-yl)-3-methoxy-4-(1-(furan-2-yl)piperidin-4-yloxy)benzamide] | 1000 to 10000 nM
4 | O=C(NC1CCN(Cc2ccccc2)CC1)c1cccc(OC2CCN(Cc3ccccc3)CC2)c1 [Compound 5-13, N-(1-benzylpiperidin-4-yl)-3-(1-benzylpiperidin-4-yloxy)benzamide] | 20000 to 50000 nM
5 | O=C(NC1CCN(Cc2ccccc2)CC1)c1ccc(OC2CCN(Cc3ccccc3)CC2)c(Cl)c1 [Compound 5-14, N-(1-benzylpiperidin-4-yl)-4-(1-benzylpiperidin-4-yloxy)-3-chlorobenzamide] | < 1000 nM
6 | O=C(NC1CCN(Cc2ccccc2)CC1)c1ccc(OC2CCN(Cc3ccc4c(c3)OCCO4)CC2)c(Cl)c1 [Compound 5-15] | < 1000 nM
7 | CC(C)(C)c1ccc(CN2CCC(Oc3ccc(C(=O)NC4CCN(Cc5ccccc5)CC4)cc3Cl)CC2)cc1 [Compound 5-16, N-(1-benzylpiperidin-4-yl)-4-(1-(4-tert-butylbenzyl)piperidin-4-yloxy)-3-chlorobenzamide] | < 1000 nM
8 | O=C(NC1CCN(Cc2ccccc2)CC1)c1ccc(OC2CCN(c3ccc(C(F)(F)F)cc3)CC2)c(Cl)c1 [Compound 5-17] | < 1000 nM
9 | O=C(NC1CCN(Cc2ccccc2)CC1)c1ccc(OC2CCN(C(=O)c3ccc(C(F)(F)F)cc3)CC2)c(Cl)c1 [Compound 5-18, N-(1-benzylpiperidin-4-yl)-3-chloro-4-(1-(4-(trifluoromethyl)benzoyl)piperidin-4-yloxy)benzamide] | < 1000 nM
10 | O=C(NC1CCN(Cc2ccccc2)CC1)c1ccc(OC2CCN(Cc3ccc(F)cc3)CC2)c(Cl)c1 [Compound 5-19, N-(1-benzylpiperidin-4-yl)-3-chloro-4-(1-(4-fluorobenzyl)piperidin-4-yloxy)benzamide] | < 1000 nM
11 | CC(C)(C)c1ccc(CN2CCC(Oc3ccc(C(=O)NC4CCN(Cc5ccccc5)CC4)cc3F)CC2)cc1 [Compound 5-20, N-(1-benzylpiperidin-4-yl)-3-fluoro-4-(1-(4-tert-butylbenzyl)piperidin-4-yloxy)benzamide] | < 1000 nM
12 | CC(c1ccccc1)N1CCC(Oc2ccc(C(=O)NC3CCN(Cc4ccccc4)CC3)cc2F)CC1 (stereo not drawn) [Compound 5-21, N-(1-benzylpiperidin-4-yl)-3-fluoro-4-(1-(1-phenylethyl)piperidin-4-yloxy)benzamide] | 1000 to 10000 nM
13 | O=C(NC1CCN(Cc2ccccc2)CC1)c1ccc(OC2CCN(C(=O)c3ccc(F)cc3)CC2)c(Cl)c1 [Compound 5-22, N-(1-benzylpiperidin-4-yl)-3-chloro-4-(1-(4-fluorobenzoyl)piperidin-4-yloxy)benzamide] | 1000 to 10000 nM
14 | O=C(NC1CCN(Cc2ccccc2)CC1)c1ccc(OC2CCN(c3ccc(C(F)(F)F)cc3)CC2)c(F)c1 [Compound 5-23, N-(1-benzylpiperidin-4-yl)-3-fluoro-4-(1-(4-(trifluoromethyl)phenyl)piperidin-4-yloxy)benzamide] | < 1000 nM
15 | O=C(NC1CCN(Cc2ccccc2)CC1)c1ccc(OC2CCN(Cc3ccccc3C(F)(F)F)CC2)c(Cl)c1 [Compound 5-24, N-(1-benzylpiperidin-4-yl)-3-chloro-4-(1-(2-(trifluoromethyl)benzyl)piperidin-4-yloxy)benzamide] | 10000 to 20000 nM
16 | O=C(NC1CCN(c2ccccc2)CC1)c1ccc(OC2CCN(c3ccc(C(F)(F)F)cc3)CC2)c(F)c1 [Compound 5-25, 3-fluoro-N-(1-phenylpiperidin-4-yl)-4-(1-(4-(trifluoromethyl)phenyl)piperidin-4-yloxy)benzamide] | > 100000 nM
17 | CC(C)(C)OC(=O)N1CCC(NC(=O)c2ccc(OC3CCN(c4ccc(C(F)(F)F)cc4)CC3)c(F)c2)CC1 [Compound 5-26, tert-butyl 4-(3-fluoro-4-(1-(4-(trifluoromethyl)phenyl)piperidin-4-yloxy)benzamido)piperidine-1-carboxylate] | < 1000 nM
18 | O=C(NC1CCN(Cc2ccc(F)cc2)CC1)c1ccc(OC2CCN(c3ccc(C(F)(F)F)cc3)CC2)c(F)c1 [Compound 5-27, 3-fluoro-N-(1-(4-fluorobenzyl)piperidin-4-yl)-4-(1-(4-(trifluoromethyl)phenyl)piperidin-4-yloxy)benzamide] | < 1000 nM

Row | SMILES | EC50
19 | O=C(NC1CCN(Cc2ccncc2)CC1)c1ccc(OC2CCN(c3ccc(C(F)(F)F)cc3)CC2)c(F)c1 [Compound 5-28, 3-fluoro-N-(1-(pyridin-4-ylmethyl)piperidin-4-yl)-4-(1-(4-(trifluoromethyl)phenyl)piperidin-4-yloxy)benzamide] | < 1000 nM
20 | O=C(NC1CCN(Cc2cccnc2)CC1)c1ccc(OC2CCN(c3ccc(C(F)(F)F)cc3)CC2)c(F)c1 [Compound 5-29, 3-fluoro-N-(1-(pyridin-3-ylmethyl)piperidin-4-yl)-4-(1-(4-(trifluoromethyl)phenyl)piperidin-4-yloxy)benzamide] | < 1000 nM
21 | CC(C)(C)C(=O)N1CCC(NC(=O)c2ccc(OC3CCN(c4ccc(C(F)(F)F)cc4)CC3)c(F)c2)CC1 [Compound 5-30, 3-fluoro-N-(1-pivaloylpiperidin-4-yl)-4-(1-(4-(trifluoromethyl)phenyl)piperidin-4-yloxy)benzamide] | < 1000 nM
22 | O=C(NC1CCN(C(=O)c2ccc(F)cc2)CC1)c1ccc(OC2CCN(c3ccc(C(F)(F)F)cc3)CC2)c(F)c1 [Compound 5-31, 3-fluoro-N-(1-(4-fluorobenzoyl)piperidin-4-yl)-4-(1-(4-(trifluoromethyl)phenyl)piperidin-4-yloxy)benzamide] | < 1000 nM
23 | O=C(NC1CCN(Cc2ccccn2)CC1)c1ccc(OC2CCN(c3ccc(C(F)(F)F)cc3)CC2)c(F)c1 [Compound 5-32, 3-fluoro-N-(1-(pyridin-2-ylmethyl)piperidin-4-yl)-4-(1-(4-(trifluoromethyl)phenyl)piperidin-4-yloxy)benzamide] | < 1000 nM
24 | COC(=O)c1ccc(CN2CCC(NC(=O)c3ccc(OC4CCN(c5ccc(C(F)(F)F)cc5)CC4)c(F)c3)CC2)cc1 [Compound 5-33, methyl 4-((4-(3-fluoro-4-(1-(4-(trifluoromethyl)phenyl)piperidin-4-yloxy)benzamido)piperidin-1-yl)methyl)benzoate] | < 1000 nM
25 | CC(C)S(=O)(=O)N1CCC(NC(=O)c2ccc(OC3CCN(c4ccc(C(F)(F)F)cc4)CC3)c(F)c2)CC1 [Compound 5-34, 3-fluoro-N-(1-(isopropylsulfonyl)piperidin-4-yl)-4-(1-(4-(trifluoromethyl)phenyl)piperidin-4-yloxy)benzamide] | < 1000 nM
26 | O=C(O)c1ccc(CN2CCC(NC(=O)c3ccc(OC4CCN(c5ccc(C(F)(F)F)cc5)CC4)c(F)c3)CC2)cc1 [Compound 5-35, 4-((4-(3-fluoro-4-(1-(4-(trifluoromethyl)phenyl)piperidin-4-yloxy)benzamido)piperidin-1-yl)methyl)benzoic acid] | 1000 to 10000 nM
27 | CC(C)(C)c1ccc(CN2CCC(Oc3ccc(C(=O)NC4CCN(c5ccccc5)CC4)cc3F)CC2)cc1 [Compound 5-36, 4-(1-(4-tert-butylbenzyl)piperidin-4-yloxy)-3-fluoro-N-(1-phenylpiperidin-4-yl)benzamide] | < 1000 nM
28 | O=C(NC1CCN(Cc2ccccc2)CC1)c1ccc(OC2CCN(Cc3ccncc3)CC2)c(F)c1 [Compound 5-37, N-(1-benzylpiperidin-4-yl)-3-fluoro-4-(1-(pyridin-4-ylmethyl)piperidin-4-yloxy)benzamide] | < 1000 nM
29 | O=C(NC1CCN(Cc2ccccc2)CC1)c1ccc(OC2CCN(Cc3cccnc3)CC2)c(F)c1 [Compound 5-38, N-(1-benzylpiperidin-4-yl)-3-fluoro-4-(1-(pyridin-3-ylmethyl)piperidin-4-yloxy)benzamide] | 1000 to 10000 nM
30 | O=C(NC1CCN(Cc2ccccc2)CC1)c1ccc(OC2CCN(Cc3ccccn3)CC2)c(F)c1 [Compound 5-39, N-(1-benzylpiperidin-4-yl)-3-fluoro-4-(1-(pyridin-2-ylmethyl)piperidin-4-yloxy)benzamide] | 1000 to 10000 nM
31 | O=C(NC1CCN(C(=O)c2ccncc2)CC1)c1ccc(OC2CCN(c3ccc(C(F)(F)F)cc3)CC2)c(F)c1 [Compound 5-40, 3-fluoro-N-(1-isonicotinoylpiperidin-4-yl)-4-(1-(4-(trifluoromethyl)phenyl)piperidin-4-yloxy)benzamide] | < 1000 nM
32 | N#Cc1ccc(CN2CCC(Oc3ccc(C(=O)NC4CCN(Cc5ccccc5)CC4)cc3F)CC2)cc1 [Compound 5-41, N-(1-benzylpiperidin-4-yl)-4-(1-(4-cyanobenzyl)piperidin-4-yloxy)-3-fluorobenzamide] | < 1000 nM
33 | N#Cc1ccc(CN2CCC(NC(=O)c3ccc(OC4CCN(c5ccc(C(F)(F)F)cc5)CC4)c(F)c3)CC2)cc1 [Compound 5-43, N-(1-(4-cyanobenzyl)piperidin-4-yl)-3-fluoro-4-(1-(4-(trifluoromethyl)phenyl)piperidin-4-yloxy)benzamide] | < 1000 nM
34 | N#Cc1ccc(N2CCC(Oc3ccc(C(=O)NC4CCN(Cc5ccncc5)CC4)cc3F)CC2)cc1 [Compound 5-44, 4-(1-(4-cyanophenyl)piperidin-4-yloxy)-3-fluoro-N-(1-(pyridin-4-ylmethyl)piperidin-4-yl)benzamide] | < 1000 nM
35 | N#Cc1ccc(CN2CCC(NC(=O)c3ccc(OC4CCN(c5ccc(C#N)cc5)CC4)c(F)c3)CC2)cc1 [Compound 5-45, N-(1-(4-cyanobenzyl)piperidin-4-yl)-4-(1-(4-cyanophenyl)piperidin-4-yloxy)-3-fluorobenzamide] | < 1000 nM
36 | O=C(NC1CCN(Cc2ccccc2)CC1)c1cccc(OC2CCN(c3ccc(C(F)(F)F)cc3)CC2)c1 [Compound 5-46, N-(1-benzylpiperidin-4-yl)-3-(1-(4-(trifluoromethyl)phenyl)piperidin-4-yloxy)benzamide] | < 1000 nM
